Measurements published in US20220232831A1, “NOVEL NON-CODING HETEROCYCLIC AMINO ACIDS (NCHAA) AND THEIR USE AS HERBICIDES” (Fortephest Ltd., priority 2019, published 2022).
Where a SMILES comes first, the peptide text is derived from it. [ ]: non-standard residue; d: D form. ξ: configuration not given here. ξ3Thi = NC(Cc1ccsc1)C(=O)O

How the values were obtained:
[1] = test system: Romaine lettuce (Lactuca sativa L.) plants; experiment: Post-emergency herbicidal activity on Romaine lettuce plants; assay type: in vivo; conditions: Romaine lettuce at stage 2 to 3 leaves; compound in 0.1% Silwet, up to 0.5%; visual evaluation vs control plants
Method: The tests were performed on Romaine lettuce (Lactuca sativa L.) plants at the stage 2 to 3 leaves. The plants were grown on 300 well trays packed with soil, well dimensions 2×2×5 cm. Each compound was dissolved in 0.1% water solution of agronomically acceptable surfactant Silwet to final concentrations ranging from 0.0% (Control) to 0.5%. Two weeks after the treatment the herbicidal effects of the respective test material were visually evaluated by a comparison with the control plants. In addition, the aboveground part of the plant was neatly cut and weighed (wet weight). Each test was performed on 20 to 40 plants. The degree of growth inhibition and damage was evaluated according to the parameters in Table 2. Plant development at 7, 14, and 21 DAA (days after application) were evaluated on a scale of 0 to 100, in which score 0 represents dead plants and score 100 represents healthy plants according to plant vigor, height, and leaf color. Each test included 20 to 40 plants.

[2] = test system: Seeds of Lettuce R. (Super-Jericho); experiment: Filter paper bioassay with lettuce seeds (germination and early plant development); assay type: in vivo; conditions: lettuce seeds on filter paper; 1, 0.1, 0.01, 0.001 mM; radicle and shoots assessed after 6 days
Method: Seeds of Lettuce R. (Super-Jericho, non-sterilized) were obtained from Ben Shahar Moshe Ltd., 99% purity.
Filter Paper Bioassays with Lettuce Seeds:
The protocol is following Bertin et al. 2009 and Movellan et al. 2014 with specified modifications as described below.
Seeds were placed on Whatman no. 1 filter paper (Whatman, Middlesex, U.K.) in Petri dishes (10 seeds per plate) supplemented with 2.0 ml of water (Control) or with a solution comprising 1 mM, 0.1 mM, 0.01 mM and 0.001 mM of test material. Petri dishes with seeds were placed in a tray at an angle of 45°. The trays were kept in dark for 48 hours and then transferred to the growth chamber (22° C., 0.045 mmol×m−2×s−1 photosynthetic photon flux density; 6/18 dark/light cycle) for additional 4 days. Each experiment was performed at least in two repeats. The development of radicle and shoots of experimental and control plants were visually assessed 6 days after the beginning of the test to determine Minimal Effective Concentration (MEC) of test material. In the context of the invention, MEC is defined as the lowest concentration level of a test material that caused deviation (absence of germination or malformation of radicle and shoots) from the plant's development in the Control group.

SMILES	post-emergency herbicidal activity (Activity Index: plant's development vs Control) [1]	Minimal Effective Concentration (MEC) as activity score, seeds germination & early plants development [2]
Cl.Cl.Cn1ncnc1CC(N)C(=O)O (stereo not drawn) [Code 770]	Weak (More than 75)	–
NC(Cc1cc(=O)[nH]cn1)C(=O)O (stereo not drawn) [Code 645]	Weak (More than 75)	Weak (More than 1 mM)
CCCCOC(=O)C(Cc1nc(Cl)sc1Cl)NC(C)=O (stereo not drawn) [Code 554]	Maximal (Less than 15)	–
NC(Cc1c[nH]c(=O)[nH]c1=O)C(=O)O (stereo not drawn) [Code 620]	Weak (More than 75)	Weak (More than 1 mM)
CCOC(=O)C(N)CNS(=O)(=O)c1cc(Br)sc1Br (stereo not drawn) [Code 580]	Very Strong (From 15 to 25)	Strong (0.1 mM)
COC(=O)C(N)CNS(=O)(=O)c1ccsc1 (stereo not drawn) [Code 507]	Weak (More than 75)	Weak (More than 1 mM)
NC(Cc1nccc(O)n1)C(=O)O (stereo not drawn) [Code 619]	Weak (More than 75)	Weak (More than 1 mM)
Cc1c(Cl)sc(Cl)c1S(=O)(=O)NCC(N)C(=O)O (stereo not drawn) [Code 515]	Weak (More than 75)	Weak (More than 1 mM)
Nc1nc(CC(N)C(=O)O)cs1 (stereo not drawn) [Code 522]	Weak (More than 75)	Weak (More than 1 mM)
NC(Cc1ccc(=O)[nH]c1)C(=O)O (stereo not drawn) [Code 650]	Weak (More than 75)	Moderate (1 mM)
Nc1cc(CC(N)C(=O)O)ccn1 (stereo not drawn) [Code 608]	Moderate (From 50 to 75)	Moderate (1 mM)
Cc1nc(N)c(CC(N)C(=O)O)c(O)n1 (stereo not drawn) [Code 669]	Weak (More than 75)	Weak (More than 1 mM)
NC(Cc1cnc(Cl)c(Cl)c1)C(=O)O (stereo not drawn) [Code 641]	Very Strong (From 15 to 25)	Strong (0.1 mM)
COC(=O)C(N)CNS(=O)(=O)c1cc(Cl)sc1Cl (stereo not drawn) [Code 523]	Weak (More than 75)	Weak (More than 1 mM)
NC(Cc1cncs1)C(=O)O (stereo not drawn) [Code 520]	Weak (More than 75)	Strong (0.1 mM)
CCOC(=O)C(Cc1nc[nH]n1)NC(=O)OCc1ccccc1 (stereo not drawn) [Code 714]	Weak (More than 75)	Moderate (1 mM)
Cc1cncc(CC(N)C(=O)O)c1 (stereo not drawn) [Code 606]	Weak (More than 75)	Weak (More than 1 mM)
NC(Cc1cncc(C(F)(F)F)c1)C(=O)O (stereo not drawn) [Code 637]	Weak (More than 75)	Strong (0.1 mM)
NC(Cc1csc(C(F)(F)F)c1)C(=O)O (stereo not drawn) [Code 556]	Maximal (Less than 15)	Strong (0.1 mM)
NC(Cc1ccc[nH]c1=O)C(=O)O (stereo not drawn) [Code 644]	Weak (More than 75)	Weak (More than 1 mM)
CCOC(=O)C(N)CNS(=O)(=O)c1cc(Cl)sc1Cl (stereo not drawn) [Code 524]	Weak (More than 75)	Weak (More than 1 mM)
Cc1sc(C)c(CC(N)C(=O)O)c1C (stereo not drawn) [Code 512]	Weak (More than 75)	Weak (More than 1 mM)
CCOC(=O)C(CN(C(=O)O)S(=O)(=O)c1cc(Cl)sc1Cl)NC(=O)O (stereo not drawn) [Code 526]	Weak (More than 75)	Weak (More than 1 mM)

SMILES	post-emergency herbicidal activity (Activity Index: plant's development vs Control) [1]	Minimal Effective Concentration (MEC) as activity score, seeds germination & early plants development [2]
CCCOC(=O)C(N)Cc1c(F)cnc(Br)c1F (stereo not drawn) [Code 656]	Very Strong (From 15 to 25)	Strong (0.1 mM)
NC(Cc1cnc(Br)c(Br)c1)C(=O)O (stereo not drawn) [Code 633]	Strong (From 25 to 50)	Strong (0.1 mM)
NC(Cc1cncc(S)c1)C(=O)O (stereo not drawn) [Code 612]	Weak (More than 75)	Weak (More than 1 mM)
Cc1sc(Cl)cc1CC(N)C(=O)O (stereo not drawn) [Code 559]	Moderate (From 50 to 75)	–
NC(Cc1nnc[nH]1)C(=O)O (stereo not drawn) [Code 709]	Maximal (Less than 15)	Moderate (1 mM)
NC(Cc1c(F)cncc1F)C(=O)O (stereo not drawn) [Code 630]	Strong (From 25 to 50)	Moderate (1 mM)
O=C1C=C(CC(NP(=O)(O)O)C(=O)O)C(=O)S1 (stereo not drawn) [Code 565]	Weak (More than 75)	Strong (0.1 mM)
NC(Cc1ccc(Cl)nc1)C(=O)O (stereo not drawn) [Code 627]	Moderate (From 50 to 75)	Strong (0.1 mM)
Cl.NC(Cc1ccnc(C(F)(F)F)c1)C(=O)O (stereo not drawn) [Code 679]	Strong (From 25 to 50)	Strong (0.1 mM)
NC(Cc1csc(Cl)c1)C(=O)O (stereo not drawn) [Code 518]	Strong (From 25 to 50)	–
CCCCOCCOCCOC(=O)C(N)Cc1cn[nH]n1 (stereo not drawn) [Code 775]	Maximal (Less than 15)	–
Cl.Cn1cc(CC(N)C(=O)O)nn1 (stereo not drawn) [Code 771]	Weak (More than 75)	–
Cn1cnnc1CC(N)C(=O)O (stereo not drawn) [Code 717]	Weak (More than 75)	–
CCCCOCCOC(=O)C(Cc1nc(Cl)sc1Cl)NC(C)=O (stereo not drawn) [Code 551]	Maximal (Less than 15)	–
Cc1nnc(CC(N)C(=O)O)n1C.Cl (stereo not drawn) [Code 773]	Weak (More than 75)	–
Cl.Cn1nnc(CC(N)C(=O)O)n1 (stereo not drawn) [Code 772]	Moderate (From 50 to 75)	–
COC(=O)C(N)Cc1cc(Cl)sc1Cl (stereo not drawn) [Code 568]	Maximal (Less than 15)	–
NC(Cc1ccsc1)C(=O)NCC(=O)O (stereo not drawn) [Code 548] (H-[ξ3Thi]-Gly-OH)	Strong (From 25 to 50)	–
N[C@@H](Cc1cn[nH]c1C(F)(F)F)C(=O)O [Code 774]	Very Strong (From 15 to 25)	–
NC(Cc1ccsc1Br)C(=O)O (stereo not drawn) [Code 560]	Strong (From 25 to 50)	–
CCCC(=O)NC(Cc1nc(Cl)sc1Cl)C(=O)OCC (stereo not drawn) [Code 550]	Maximal (Less than 15)	–
NC(Cc1cc(C(F)(F)F)cs1)C(=O)O (stereo not drawn) [Code 510]	Strong (From 25 to 50)	–
Cl.NC(Cc1n[nH]c2ccccc12)C(=O)O (stereo not drawn) [Code 599]	–	Maximal (0.01 mM and less)
